Laboratory results published in patent publication US9765074B2, “Inhibitors of the renal outer medullary potassium channel” (Merck Sharp & Dohme Corp., priority 2013, dated 2017).

The compounds below were run against T1, hROMK (hKir1.1) (Homo sapiens, UniProt P48048) (assay: Thallium Flux Assay (ROMK channel functional thallium flux, FLIPR-Tetra)). Details: HEK293 cells stably expressing hROMK (hKir1.1); 30 min compound incubation.
T1 construct: expressed in transfected cells
T1 sequence (P48048 1-391): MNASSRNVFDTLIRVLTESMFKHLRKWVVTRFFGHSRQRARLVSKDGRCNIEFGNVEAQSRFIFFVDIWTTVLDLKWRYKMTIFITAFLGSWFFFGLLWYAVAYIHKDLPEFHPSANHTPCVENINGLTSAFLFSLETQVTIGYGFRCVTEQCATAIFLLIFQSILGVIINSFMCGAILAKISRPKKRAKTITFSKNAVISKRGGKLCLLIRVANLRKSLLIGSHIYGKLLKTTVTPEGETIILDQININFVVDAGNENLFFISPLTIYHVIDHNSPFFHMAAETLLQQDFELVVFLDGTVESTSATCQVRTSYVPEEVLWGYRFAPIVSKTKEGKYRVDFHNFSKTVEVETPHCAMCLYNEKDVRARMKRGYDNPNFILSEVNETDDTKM
Type: cell-based
How it was run: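 HEK293 cells stably expressing hKir1.1, loaded with FluxOR dye for 90 min, then preincubated with compound for 30 min at ambient temperature with 0.3 mM ouabain and probenecid. Stimulated with 3 mM thallium/0.3 mM potassium (final); fluorescence read ~10 min. Normalized to 3 μM reference ROMK inhibitor; IC50 from inhibition of flux.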

| IC50 | Compound |
| --- | --- |
| 20 nM | CC1=CN(C2=C(C)C(=O)OC2)C(=O)C12CCN(CCc1ccc(-n3cnnn3)nn1)CC2 [Example 253, 4-methyl-2-(4-methyl-5-oxo-2,5-dihydrofuran-3-yl)-1-oxo-8-{2-[6-(1H-tetrazol-1-yl)pyridazin-3-yl]ethyl}-2-aza-8-azoniaspiro[4.5]dec-3-ene] |
| 280 nM | CC1OC(=O)C=C1N1C(=O)C2(CCN(C[C@H](O)c3ccc(-n4cnnn4)nc3)CC2)C[C@@H]1C (single isomer, unassigned) [Example 229] |
| 10 nM | CC1=C(N2C=CC3(CCN([C@@H](C)Cc4ccc(-n5cnnn5)nn4)CC3)C2=O)COC1=O (single isomer, unassigned) [Example 272] |
| 5 nM | CCc1nc(-n2cnnn2)cnc1CCN1CCC2(CC1)C[C@H](C)N(C1=CC(=O)OC1)C2=O [Example 271, (S)-8-(2-(3-ethyl-5-(1H-tetrazol-1-yl)pyrazin-2-yl)ethyl)-3-methyl-2-(5-oxo-2,5-dihydrofuran-3-yl)-2,8-diazaspiro[4.5]decan-1-one] |
| 30 nM | CC1=C(N2CCC3(CCN(C[C@H](O)c4ccc(-n5cnnn5)nc4C)CC3)C2=O)COC1=O [Example 20, 8-{(2R)-2-hydroxy-2-[2-methyl-6-(1H-tetrazol-1-yl)pyridin-3-yl]ethyl}-2-(4-methyl-5-oxo-2,5-dihydrofuran-3-yl)-1-oxo-2-aza-8-azoniaspiro[4.5]decane] |
| 60 nM | CO[C@@H](CN1CCC2(CC1)CCN(C1=C(C)C(=O)OC1)C2=O)c1cnc(-n2cnnn2)cn1 [Example 283] |
| 10 nM | C[C@@H]1CC2(CCN(C[C@H](O)c3ccc(-n4cnnn4)nc3)CC2)C(=O)N1C1=CC(=O)OC1 [Example 83, (3R)-8-{(2R)-2-hydroxy-2-[6-(1H-tetrazol-1-yl)pyridin-3-yl]ethyl}-3-methyl-1-oxo-2-(5-oxo-2,5-dihydrofuran-3-yl)-2-aza-8-azoniaspiro[4.5]decane] |
| 100 nM | CC1=C(N2C=CC3(CCN(C[C@H](O)c4cnc(-n5cnnn5)cn4)CC3)C2=O)COC1=O [Example 163, 8-{(2S)-2-hydroxy-2-[5-(1H-tetrazol-1-yl)pyrazin-2-yl]ethyl}-2-(4-methyl-5-oxo-2,5-dihydrofuran-3-yl)-1-oxo-2-aza-8-azoniaspiro[4.5]dec-3-ene] |
| 10 nM | CC1=C(N2CCC3(CCN(C[C@@H](O)c4nnc(-n5cnnn5)cc4C)CC3)C2=O)COC1=O [Example 122, 8-{(2R)-2-hydroxy-2-[4-methyl-6-(1H-tetrazol-1-yl)pyridazin-3-yl]ethyl}-2-(4-methyl-5-oxo-2,5-dihydrofuran-3-yl)-1-oxo-2-aza-8-azoniaspiro[4.5]decane] |
| 770 nM | COC1CN(C[C@@H](O)c2cnc(-n3cnnn3)cn2)CCC12CCN(C1=C(C)C(=O)OC1)C2=O (single isomer, unassigned) [Example 173] |
| 10 nM | C[C@H]1CC2(CCN(CCc3ncc(-n4cnnn4)nc3C3CC3)CC2)C(=O)N1C1=CC(=O)OC1 [Example 270, (S)-8-(2-(3-cyclopropyl-5-(1H-tetrazol-1-yl)pyrazin-2-yl)ethyl)-3-methyl-2-(5-oxo-2,5-dihydrofuran-3-yl)-2,8-diazaspiro[4.5]decan-1-one] |
| 20 nM | CC1=CC2(CCN(CCc3ccc(-n4cnnn4)nn3)CC2)C(=O)N1C1=CC(=O)OC1 [Example 255, 3-methyl-2-(5-oxo-2,5-dihydrofuran-3-yl)-8-{2-[6-(1H-tetrazol-1-yl)pyridazin-3-yl]ethyl}-2,8-diazaspiro[4.5]dec-3-en-1-one] |
| 40 nM | O=C1C=C(N2C(=O)C3(CCN(C[C@H](O)c4ccc(-n5cnnn5)nn4)CC3)CC2C2CC2)CO1 (mixture of isomers) [Example 211, 3-cyclopropyl-8-{(2S)-2-hydroxy-2-[6-(1H-tetrazol-1-yl)pyridazin-3-yl]ethyl}-2-(5-oxo-2,5-dihydrofuran-3-yl)-2,8-diazaspiro[4.5]decan-1-one] |
| 190 nM | CC1=C(N2CCC3(CCN(C[C@@H](O)c4c(F)cc(-n5cnnn5)cc4F)CC3)C2=O)COC1=O [Example 143, 8-{(2S)-2-[2,6-difluoro-4-(1H-tetrazol-1-yl)phenyl]-2-hydroxyethyl}-2-(4-methyl-5-oxo-2,5-dihydrofuran-3-yl)-1-oxo-2-aza-8-azoniaspiro[4.5]decane] |
| 3 nM | C[C@H]1CC2(CCN(CCc3ccc(-n4cnnn4)nn3)CC2)C(=O)N1C1=CC(=O)OC1 [Example 264, (3S)-3-methyl-2-(5-oxo-2,5-dihydrofuran-3-yl)-8-{2-[6-(1H-tetrazol-1-yl)pyridazin-3-yl]ethyl}-2,8-diazaspiro[4.5]decan-1-one] |
| 70 nM | COC1CN(C[C@@H](O)c2ccc(-n3cnnn3)nc2)CCC12CCN(C1=C(C)C(=O)OC1)C2=O (single isomer, unassigned) [Example 177] |
| 10 nM | CC1=C(N2CCC3(CCN(C[C@H](O)c4nnc(-n5cnnn5)cc4C)CC3F)C2=O)COC1=O (single isomer, unassigned) [Example 198] |
| 10 nM | CC1=C(N2CCC3(CCN(C(C)(C)C(O)c4ccc(-n5cnnn5)cn4)CC3)C2=O)COC1=O (single isomer, unassigned) [Example 299] |
| 50 nM | CC1=CC2(CCN(C[C@H](O)c3ccc(-n4cnnn4)nn3)CC2)C(=O)N1C1=CC(=O)OC1 [Example 188, 8-{(2S)-2-hydroxy-2-[6-(1H-tetrazol-1-yl)pyridazin-3-yl]ethyl}-3-methyl-2-(5-oxo-2,5-dihydrofuran-3-yl)-2,8-diazaspiro[4.5]dec-3-en-1-one] |
| 10 nM | CC1=C(N2CCC3(CCN(C[C@@H](O)c4ccc(-n5cnnn5)cc4)CC3)C2=O)COC1=O [Example 35, 8-{(2S)-2-hydroxy-2-[4-(1H-tetrazol-1-yl)phenyl]ethyl}-2-(4-methyl-5-oxo-2,5-dihydrofuran-3-yl)-1-oxo-2-aza-8-azoniaspiro[4.5]decane] |
| 20 nM | Cc1cc(-n2cnnn2)ccc1[C@@H](O)CN1CCC2(CC1)CCN(C1=CC(=O)OC1)C2=O [Example 11, 8-{(2R)-2-hydroxy-2-[2-methyl-4-(1H-tetrazol-1-yl)phenyl]ethyl}-1-oxo-2-(5-oxo-2,5-dihydrofuran-3-yl)-2-aza-8-azoniaspiro[4.5]decane] |
| 20 nM | CC1=C(N2CCC3(CCN(C[C@H](F)c4ccc(-n5cnnn5)cn4)CC3)C2=O)COC1=O [Example 279, 8-{(2S)-2-fluoro-2-[5-(1H-tetrazol-1-yl)pyridin-2-yl]ethyl}-2-(4-methyl-5-oxo-2,5-dihydrofuran-3-yl)-1-oxo-2-aza-8-azoniaspiro[4.5]decane] |
| 180 nM | COC1CN(C[C@H](O)c2cnc(-n3cnnn3)cn2)CCC12CCN(C1=C(C)C(=O)OC1)C2=O (single isomer, unassigned) [Example 172] |
| 20 nM | CC1=C(N2C=CC3(CCN(CCc4ccc(-n5cnnn5)nn4)CC3)C2=O)COC1=O [Example 247, 2-(4-methyl-5-oxo-2,5-dihydrofuran-3-yl)-1-oxo-8-{2-[6-(1H-tetrazol-1-yl)pyridazin-3-yl]ethyl}-2-aza-8-azoniaspiro[4.5]dec-3-ene] |
| 50 nM | CC1=C(N2CCC3(CCN(C[C@H](OC(C)C)c4ccc(-n5cnnn5)nc4)CC3)C2=O)COC1=O [Example 285, 8-{(2R)-2-(1-methylethoxy)-2-[6-(1H-tetrazol-1-yl)pyridin-3-yl]ethyl}-2-(4-methyl-5-oxo-2,5-dihydrofuran-3-yl)-1-oxo-2-aza-8-azoniaspiro[4.5]decane] |
| 80 nM | COCC1=C(N2CCC3(CCN(C[C@H](O)c4cnc(-n5cnnn5)cn4)CC3)C2=O)COC1=O [Example 200, 8-{(2S)-2-hydroxy-2-[5-(1H-tetrazol-1-yl)pyrazin-2-yl]ethyl}-2-[4-(methoxymethyl)-5-oxo-2,5-dihydrofuran-3-yl]-2,8-diazaspiro[4.5]decan-1-one] |
| 10 nM | CC1=C(N2CCC3(CCN(CCc4nnc(-n5cnnn5)cc4C)CC3F)C2=O)COC1=O (single isomer, unassigned) [Example 267, 6-fluoro-2-(4-methyl-5-oxo-2,5-dihydrofuran-3-yl)-8-{2-[4-methyl-6-(1H-tetrazol-1-yl)pyridazin-3-yl]ethyl}-2,8-diazaspiro[4.5]decan-1-one] |
| 30 nM | CC1=C(N2C=CC3(CCN(C[C@H](O)c4nnc(-n5cnnn5)cc4C)CC3)C2=O)COC1=O [Example 154, 8-{(2S)-2-hydroxy-2-[4-methyl-6-(1H-tetrazol-1-yl)pyridazin-3-yl]ethyl}-2-(4-methyl-5-oxo-2,5-dihydrofuran-3-yl)-1-oxo-2-aza-8-azoniaspiro[4.5]dec-3-ene] |

| Compound | IC50 |
| --- | --- |
| CC1CC2(CC3CCC(C2)N3C[C@@H](O)c2ccc(-n3cnnn3)nc2)C(=O)N1C1=CC(=O)OC1 (single isomer, unassigned) [Example 103] | 10 nM |
| CC1=C(N2CCC3(CC4COCC(C3)N4C[C@H](O)c3ccc(-n4cnnn4)nc3)C2=O)COC1=O (stereo partly drawn) [Example 180, 9-{(2R)-2-hydroxy-2-[6-(1H-tetrazol-1-yl)pyridin-3-yl]ethyl}-1′-(4-methyl-5-oxo-2,5-dihydrofuran-3-yl)-2′H-spiro[7-oxa-9-azabicyclo[3.3.1]nonane-3,3′-pyrrolidin]-2′-one] | 40 nM |
| CC1=C(N2CCC3(CC4CCC(C3)N4C[C@@H](O)c3cnc(-n4cnnn4)cn3)C2=O)COC1=O (stereo partly drawn) [Example 49, (1R,5R)-8-{(2R)-2-hydroxy-2-[5-(1H-tetrazol-1-yl)pyrazin-2-yl]ethyl}-1′-(4-methyl-5-oxo-2,5-dihydrofuran-3-yl)-2′-oxospiro[8-azoniabicyclo[3.2.1]octane-3,3′-pyrrolidine]] | 90 nM |
